This passage reports IC50 results from patent US8895547B2, “Substituted phenyl-oxathiazine derivatives, method for producing them, drugs containing said compounds and the use thereof” (Sanofi, priority 2011, dated 2014).

The experiment deals with T1, human 11β-HSD1 (Homo sapiens, UniProt P28845).
T1 construct: host or cells: microsome fraction
The experiment can be described thus: Enzymatic 11beta-HSD1 test (SPA-based detection). It counts as biochemical. To be noted: human 11β-HSD1 microsome fraction, [1,2-3H]-cortisone, NADPH, 37° C. 1 hour. The procedure, abridged:
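Scintillation proximity detection: anti-cortisol antibody on SPA-PVT beads captured tritiated cortisol. The stop mix also contained 0.01 mM SSR110887 and was equilibrated 1 h at room temperature before counting. Cortisol came from [1,2-3H]-cortisone ([…]), turned over by human 11β-HSD1 microsomal protein (0.2 µg) with 0.25 mM NADPH in HEPES buffer, 37 °C, 1 h.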

T1 sequence (P28845 whole entry): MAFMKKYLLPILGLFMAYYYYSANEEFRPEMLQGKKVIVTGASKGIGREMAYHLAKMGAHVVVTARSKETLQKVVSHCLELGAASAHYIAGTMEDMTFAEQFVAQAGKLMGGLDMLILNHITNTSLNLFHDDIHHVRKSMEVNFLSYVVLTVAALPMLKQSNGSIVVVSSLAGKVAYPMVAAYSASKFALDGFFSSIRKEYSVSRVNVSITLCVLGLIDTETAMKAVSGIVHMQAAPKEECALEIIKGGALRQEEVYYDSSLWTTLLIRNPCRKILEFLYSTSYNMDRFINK

In turn, `CN1CCN(c2ccc(C3C(C)(C)OC(N[C@@H](CCO)c4ccccc4F)=NS3(=O)=O)cc2)CC1` (stereo partly shown) [Example 109] registered an IC50 of 79 nM.
Molecule `CC1(C)OC(N[C@@H](CCO)c2ccccc2F)=NS(=O)(=O)C1c1ccc(CCCN2CCOCC2)cc1` (stereo partly shown) [Example 110] came in with an IC50 of 27 nM.
In the case of `Cn1nccc1-c1ccc(C2C(C)(C)OC(N[C@@H](CCO)c3ccccc3F)=NS2(=O)=O)cc1` (stereo partly drawn) [Example 111, (S)-3-{6,6-Dimethyl-5-[4-(2-methyl-2H-pyrazol-yl)-phenyl]-4,4-dioxo-5,6-dihydro-4H-4lambda6-[1,4,3]oxathiazin-2-ylamino}-3-(2-fluorophenyl)-propan-1-ol] it was 7 nM; in that of `CN(C)C(=O)c1ccc(-c2ccc(C3C(C)(C)OC(N[C@@H](CCO)c4ccccc4F)=NS3(=O)=O)cc2)cc1` (stereo partly drawn) [Example 112, 4′-{2-[(S)-1-(2-fluorophenyl)-3-hydroxy-propylamino]-6,6-dimethyl-4,4-dioxo-5,6-dihydro-4H-4lambda6-[1,4,3]oxathiazin-5-yl}-biphenyl-4-carboxylic acid dimethylamide], 7 nM; in that of `CC1(C)OC(N[C@@H](CCO)c2ccccc2F)=NS(=O)(=O)C1c1ccc(-c2cccnc2)cc1` (stereo partly drawn) [Example 113, (S)-3-[6,6-Dimethyl-4,4-dioxo-5-(4-pyridin-3-yl-phenyl)-5,6-dihydro-4H-4lambda6-[1,4,3]oxathiazin-2-ylamino]-3-(2-fluorophenyl)-propan-1-ol], 4 nM.
In the case of `CN1CCN(c2ccc(-c3ccc(C4C(C)(C)OC(N[C@@H](CCO)c5ccccc5F)=NS4(=O)=O)cc3)cc2)CC1` (stereo partly shown) [Example 114] it was 8 nM; in that of `Cc1n[nH]cc1-c1ccc(C2C(C)(C)OC(N[C@@H](CCO)c3ccccc3F)=NS2(=O)=O)cc1` (stereo partly drawn) [Example 115, (S)-3-{6,6-Dimethyl-5-[4-(3-methyl-1H-pyrazol-yl)-phenyl]-4,4-dioxo-5,6-dihydro-4H-4lambda6-[1,4,3]oxathiazin-2-ylamino}-3-(2-fluorophenyl)-propan-1-ol], 5 nM.
`CN(CCCc1ccc(C2C(C)(C)OC(N[C@@H](CCO)c3ccccc3F)=NS2(=O)=O)cc1)CC(F)F` (stereo partly drawn) [Example 116, (S)-3-[5-(4-{3-[(2,2-Difluoroethyl)-methyl-amino]-propyl}-phenyl)-6,6-dimethyl-4,4-dioxo-5,6-dihydro-4H-4lambda6-[1,4,3]oxathiazin-2-ylamino]-3-(2-fluorophenyl)-propan-1-ol] gave an IC50 of 5 nM.
The molecule `CNCCCc1ccc(C2C(C)(C)OC(N[C@@H](CCO)c3ccccc3F)=NS2(=O)=O)cc1` (stereo partly drawn) [Example 117, (S)-3-{6,6-Dimethyl-5-[4-(3-methylamino-propyl)-phenyl]-4,4-dioxo-5,6-dihydro-4H-4lambda6-[1,4,3]oxathiazin-2-ylamino}-3-(2-fluorophenyl)-propan-1-ol] had an IC50 of 23 nM.
On to `CC1(C)OC(N[C@@H](CCO)c2ccccc2F)=NS(=O)(=O)C1c1ccc(-c2csc(N3CCOCC3)n2)cc1` (stereo partly drawn) [Example 118, (S)-3-{6,6-Dimethyl-5-[4-(2-morpholin-4-yl-thiazol-4-yl)-phenyl]-4,4-dioxo-5,6-dihydro-4H-4lambda6-[1,4,3]oxathiazin-2-ylamino}-3-(2-fluorophenyl)-propan-1-ol], for which inhibition was half-maximal at 8 nM (IC50).
As for `CC1(C)OC(N[C@@H](CCO)c2ccccc2F)=NS(=O)(=O)C1c1ccc(-c2ccncc2)cc1` (stereo partly drawn) [Example 119, (S)-3-[6,6-Dimethyl-4,4-dioxo-5-(4-pyridin-4-yl-phenyl)-5,6-dihydro-4H-4lambda6-[1,4,3]oxathiazin-2-ylamino]-3-(2-fluorophenyl)-propan-1-ol], 6 nM corresponded to half-maximal inhibition (IC50).
In the case of `CC1(C)OC(N[C@@H](CCO)c2ccccc2F)=NS(=O)(=O)C1c1ccc(-c2ccc(C(N)=O)cc2)cc1` (stereo partly drawn) [Example 120, 4′-{2-[(S)-1-(2-fluorophenyl)-3-hydroxy-propylamino]-6,6-dimethyl-4,4-dioxo-5,6-dihydro-4H-4lambda6-[1,4,3]oxathiazin-5-yl}-biphenyl-4-carboxylic acid amide] it was 6 nM; in that of `CC1(C)OC(N[C@@H](CCO)c2ccccc2F)=NS(=O)(=O)C1c1ccc(-c2cn[nH]c2)cc1` (stereo partly drawn) [Example 121, (S)-3-{6,6-Dimethyl-4,4-dioxo-5-[4-(1H-pyrazol-4-yl)-phenyl]-5,6-dihydro-4H-4lambda6-[1,4,3]oxathiazin-2-ylamino}-3-(2-fluorophenyl)-propan-1-ol], 8 nM; in that of `CN(CCO)CCCc1ccc(C2C(C)(C)OC(N[C@@H](CCO)c3ccccc3F)=NS2(=O)=O)cc1` (stereo partly shown) [Example 122], 35 nM.
Under `CN(C)Cc1ccc(-c2ccc(C3C(C)(C)OC(N[C@@H](CCO)c4ccccc4F)=NS3(=O)=O)cc2)cc1` (stereo partly drawn) [Example 123, (S)-3-[5-(4′-Dimethylaminomethyl-biphenyl-4-yl)-6,6-dimethyl-4,4-dioxo-5,6-dihydro-4H-4lambda6-[1,4,3]oxathiazin-2-ylamino]-3-(2-fluorophenyl)-propan-1-ol] stands 13 nM; under `Cn1cc(-c2ccc(C3C(C)(C)OC(N[C@@H](CCO)c4ccccc4F)=NS3(=O)=O)cc2)cn1` (stereo partly drawn) [Example 124, (S)-3-{6,6-Dimethyl-5-[4-(1-methyl-1H-pyrazol-yl)-phenyl]-4,4-dioxo-5,6-dihydro-4H-4lambda6-[1,4,3]oxathiazin-2-ylamino}-3-(2-fluorophenyl)-propan-1-ol], 8 nM; under `CN1CCN(c2ncc(-c3ccc(C4C(C)(C)OC(N[C@@H](CCO)c5ccccc5F)=NS4(=O)=O)cc3)cn2)CC1` (stereo partly drawn) [Example 125, (S)-3-(6,6-Dimethyl-5-{4-[2-(4-methyl-piperazin-1-yl)-pyrimidin-5-yl]-phenyl}-4,4-dioxo-5,6-dihydro-4H-4lambda6-[1,4,3]oxathiazin-2-ylamino)-3-(2-fluorophenyl)-propan-1-ol], 4 nM.
Regarding `CN(C)c1cccc(-c2ccc(C3C(C)(C)OC(N[C@@H](CCO)c4ccccc4F)=NS3(=O)=O)cc2)n1` (stereo partly drawn) [Example 126, (S)-3-{5-[4-(6-Dimethylamino-pyridin-2-yl)-phenyl]-6,6-dimethyl-4,4-dioxo-5,6-dihydro-4H-4lambda6-[1,4,3]oxathiazin-2-ylamino}-3-(2-fluorophenyl)-propan-1-ol], the IC50 was 19 nM.
Under `CC1(C)OC(N[C@@H](CCO)c2ccccc2F)=NS(=O)(=O)C1c1ccc(-c2ccnc(C#N)c2)cc1` (stereo partly shown) [Example 127] stands 6 nM.
Under `CC1(C)OC(N[C@@H](CCO)c2ccccc2F)=NS(=O)(=O)C1c1ccc(-c2cc[nH]n2)cc1` (stereo partly drawn) [Example 128, (S)-3-{6,6-Dimethyl-4,4-dioxo-5-[4-(1H-pyrazol-3-yl)-phenyl]-5,6-dihydro-4H-4lambda6-[1,4,3]oxathiazin-2-ylamino}-3-(2-fluorophenyl)-propan-1-ol] stands 10 nM; under `CC1(C)OC(N[C@@H](CCO)c2ccccc2F)=NS(=O)(=O)C1c1ccc(CN2CCOCC2)cc1` (stereo partly drawn) [Example 129, (S)-3-[6,6-Dimethyl-5-(4-morpholin-4-ylmethyl-phenyl)-4,4-dioxo-5,6-dihydro-4H-4lambda6-[1,4,3]oxathiazin-2-ylamino]-3-(2-fluorophenyl)-propan-1-ol], 18 nM.
Under `CC1(C)OC(N[C@@H](CCO)c2ccccc2F)=NS(=O)(=O)C1c1ccc(Nc2ncccn2)cc1` (stereo partly drawn) [Example 130, (S)-3-{6,6-Dimethyl-4,4-dioxo-5-[4-(pyrimidin-2-ylamino)-phenyl]-5,6-dihydro-4H-4lambda6-[1,4,3]oxathiazin-2-ylamino}-3-(2-fluorophenyl)-propan-1-ol] stands 20 nM; under `CC1(C)OC(N[C@@H](CCO)c2ccccc2F)=NS(=O)(=O)C1c1ccc(N2CCCC2=O)cc1` (stereo partly drawn) [Example 132, 1-(4-{2-[(S)-1-(2-fluorophenyl)-3-hydroxy-propylamino]-6,6-dimethyl-4,4-dioxo-5,6-dihydro-4H-4lambda6-[1,4,3]oxathiazin-5-yl}-phenyl)-pyrrolidin-2-one], 14 nM.
As for `CN1CCN(c2cnc(-c3ccc(C4C(C)(C)OC(N[C@@H](CCO)c5ccccc5F)=NS4(=O)=O)cc3)cn2)CC1` (stereo partly drawn) [Example 133, (S)-3-{6,6-Dimethyl-5-[4-(4-methyl-3,4,5,6-tetrahydro-2H-[1,2′]bipyrazinyl-5′-yl)-phenyl]-4,4-dioxo-5,6-dihydro-4H-4lambda6-[1,4,3]oxathiazin-2-ylamino}-3-(2-fluorophenyl)-propan-1-ol], the midpoint of inhibition, the IC50, lay at 7 nM.
Under `CC1(C)OC(N[C@@H](CCO)c2ccccc2F)=NS(=O)(=O)C1c1ccc(-c2ccccn2)cc1` (stereo partly drawn) [Example 134, (S)-3-[6,6-Dimethyl-4,4-dioxo-5-(4-pyridin-2-yl-phenyl)-5,6-dihydro-4H-4lambda6-[1,4,3]oxathiazin-2-ylamino]-3-(2-fluorophenyl)-propan-1-ol] stands 11 nM; under `CC1(C)OC(N[C@@H](CCO)c2ccccc2F)=NS(=O)(=O)C1c1ccc(N2CCN(CCO)CC2)cc1` (stereo partly shown) [Example 135], 59 nM; under `CN1CCN(Cc2ccc(C3C(C)(C)OC(N[C@@H](CCO)c4ccccc4F)=NS3(=O)=O)cc2)CC1` (stereo partly drawn) [Example 136, (S)-3-{6,6-Dimethyl-5-[4-(4-methyl-piperazin-1-ylmethyl)-phenyl]-4,4-dioxo-5,6-dihydro-4H-4lambda6-[1,4,3]oxathiazin-2-ylamino}-3-(2-fluoro-phenyl)-propan-1-ol], 63 nM.
Under `CN1CCN(CCOc2ccc(C3C(C)(C)OC(N[C@@H](CCO)c4ccccc4F)=NS3(=O)=O)cc2)CC1` (stereo partly drawn) [Example 137, (S)-3-(6,6-Dimethyl-5-{4-[2-(4-methyl-piperazin-1-yl)-ethoxy]-phenyl}-4,4-dioxo-5,6-dihydro-4H-4lambda6-[1,4,3]oxathiazin-2-ylamino)-3-(2-fluoro-phenyl)-propan-1-ol] stands 70 nM.

The term IC50 denotes the concentration at which inhibition is half-maximal.
